Experiments:
[1] = tested on: Radical scavenging activity; assay: Antioxidant activity assessed as DPPH radical scavenging activity after 48 hrs; format: functional
[2] = tested on: Radical scavenging activity; assay: Antioxidant activity assessed as DPPH radical scavenging activity after 30 mins; format: functional

Row | Compound | IC50 [1] [µM] | Activity [2] [%]
1 | CC(=O)O[C@H]1c2ccccc2-c2c3c(cc4c2[C@@H]1N(C(C)=O)CC4)OCO3 | 518 | < 10
2 | COc1cc2c3c(c1OC)-c1ccccc1[C@H](OC(C)=O)[C@H]3N(C(C)=O)CC2 | 362 | < 10

Source: ChEMBL document CHEMBL1158712, “Acetylated aporphine alkaloids from Lysichiton camtschatcense” (J Nat Prod, 2005)
